Test results reported in patent US6608088B1, “Use of donerezil for the treatment of functional and/or organic pain syndromes” (priority 1998, dated 2003).
Where a name gives a salt, the structure may show the parent alone.

How the values were obtained:
primary fibromyalgia = test: Treatment of patients with primary fibromyalgia; type: in vivo; settings: 16 patients, same conditions as migraine tests (5 mg daily)
Text: Systemic pain of muscles, tendons, viscera (oesophagus, stomach, colon); these syndromes are considered particularly difficult to hale.

[1] = system: migraine attacks longer than 72 h; test: Acute treatment of patients with migraine attacks longer than 72 h; type: in vivo; settings: 8 patients, 20 mg acutely given
[2] = human, in vivo
[3] = system: pain syndromes caused by denervation or amputation; test: Treatment of patients with pain syndromes caused by denervation; type: in vivo; settings: five of nine patients, no advantage after antiinflammatory analgesics or opioids; same conditions as above (5 mg daily)
Procedure: In the pain syndromes caused by denervation or amputation pain develops on the limb or body part which is denervated and therefore is insensible to nociceptive stimuli (“painful anaesthesia”).
Nine patients who had no advantages after treatment with antiinflammatory analgesica or opioids were tested in the same conditions as above described.

COc1cc2c(cc1OC)C(=O)C(CC1CCN(Cc3ccccc3)CC1)C2 (centres unmarked) [Donepezil hydrochloride, 1H-Inden-1-one, 2,3-dihydro-5,6-dimethoxy-2-[[1-(phenylmethyl)4-piperidinyl]methyl]-, hydrochloride]
cases treated with improvement of the patient's conditions (primary fibromyalgia): 60% | cases with total disappearance of the pain (primary fibromyalgia): 10% | results of acute treatment of migraine attacks [1]: highly satisfactory | tolerance to the treatment [2]: high tolerance | improvement of conditions [3]: 50-80%
